Measurements: patent publication US11542240B2, “STK19 inhibitors for treatment of cancer” (TRUSTEES OF BOSTON UNIVERSITY, priority 2018, dated 2023)
Like-named read-outs stand apart in the source and are kept apart here.

Assays:
Assay in all cases: biochemical
Type in all cases: binding
[1] = molecular target: panel of 468 diverse kinases (Homo sapiens, UniProt O15075); conditions: DCAMKL1; 1000 nM; read-out: Percent Control
[2] = molecular target: panel of 468 diverse kinases (Homo sapiens, UniProt Q96J92); conditions: WNK4; 1000 nM; read-out: Percent Control
[3] = molecular target: panel of 468 diverse kinases (Homo sapiens, UniProt Q16832); conditions: DDR2; 1000 nM; read-out: Percent Control
Chain of panel of 468 diverse kinases (Homo sapiens, UniProt Q16832) (Q16832 22-855 limits assumed): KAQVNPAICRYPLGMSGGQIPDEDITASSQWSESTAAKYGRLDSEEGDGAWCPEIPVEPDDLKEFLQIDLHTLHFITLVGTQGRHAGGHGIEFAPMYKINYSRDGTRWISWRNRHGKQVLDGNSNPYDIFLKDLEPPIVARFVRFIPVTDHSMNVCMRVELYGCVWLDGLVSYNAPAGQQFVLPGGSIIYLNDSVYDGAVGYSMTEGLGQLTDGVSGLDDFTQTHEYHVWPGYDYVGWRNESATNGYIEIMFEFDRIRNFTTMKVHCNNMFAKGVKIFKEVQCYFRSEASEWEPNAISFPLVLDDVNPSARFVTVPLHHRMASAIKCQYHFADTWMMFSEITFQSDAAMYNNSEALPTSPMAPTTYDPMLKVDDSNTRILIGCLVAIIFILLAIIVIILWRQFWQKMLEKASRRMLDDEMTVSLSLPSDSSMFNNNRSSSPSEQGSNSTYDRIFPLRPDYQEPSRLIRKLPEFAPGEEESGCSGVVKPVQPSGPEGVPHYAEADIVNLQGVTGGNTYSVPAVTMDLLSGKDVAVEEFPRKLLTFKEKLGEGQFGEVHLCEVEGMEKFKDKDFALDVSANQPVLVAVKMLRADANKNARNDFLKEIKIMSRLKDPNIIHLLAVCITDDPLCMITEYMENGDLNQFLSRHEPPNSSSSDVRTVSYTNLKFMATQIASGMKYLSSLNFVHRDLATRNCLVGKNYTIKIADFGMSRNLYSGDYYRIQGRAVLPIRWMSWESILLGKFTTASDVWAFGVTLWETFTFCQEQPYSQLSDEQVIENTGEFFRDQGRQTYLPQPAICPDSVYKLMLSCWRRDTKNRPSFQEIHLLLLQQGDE

[4] = molecular target: panel of 468 diverse kinases (Homo sapiens, UniProt O75914); conditions: PAK3; 1000 nM; read-out: Percent Control
[5] = molecular target: panel of 468 diverse kinases (Homo sapiens, UniProt P00519, T315I); conditions: 1000 nM, read-out: Percent Control
[6] = molecular target: panel of 468 diverse kinases (Homo sapiens, UniProt Q14164); conditions: IKK-epsilon; 1000 nM; read-out: Percent Control
[7] = molecular target: panel of 468 diverse kinases (Homo sapiens, UniProt Q9H3Y6); conditions: SRMS; 1000 nM; read-out: Percent Control
[8] = molecular target: panel of 468 diverse kinases (Homo sapiens, UniProt Q8NEV4); conditions: MYO3A; 1000 nM; read-out: Percent Control
[9] = molecular target: panel of 468 diverse kinases (Homo sapiens, UniProt P36507); conditions: MEK2; 1000 nM; read-out: Percent Control
[10] = molecular target: panel of 468 diverse kinases (Homo sapiens, UniProt P30291); conditions: WEE1; 1000 nM; read-out: Percent Control
[11] = molecular target: panel of 468 diverse kinases (Homo sapiens, UniProt P00519, F317I); conditions: 1000 nM, read-out: Percent Control
[12] = molecular target: panel of 468 diverse kinases (Homo sapiens, UniProt P32298); conditions: GRK4; 1000 nM; read-out: Percent Control
[13] = molecular target: panel of 468 diverse kinases (Homo sapiens, UniProt Q9NRP7); conditions: STK36; 1000 nM; read-out: Percent Control
[14] = molecular target: panel of 468 diverse kinases (Homo sapiens, UniProt P0C1S8); conditions: WEE2; 1000 nM; read-out: Percent Control
[15] = molecular target: panel of 468 diverse kinases (Homo sapiens, UniProt Q8NFD2); conditions: ANKK1; 1000 nM; read-out: Percent Control
[16] = molecular target: panel of 468 diverse kinases (Homo sapiens, UniProt P48729); conditions: CSNKIV1; 1000 nM; read-out: Percent Control
Chain of panel of 468 diverse kinases (Homo sapiens, UniProt P48729) (P48729 2-337 limits assumed): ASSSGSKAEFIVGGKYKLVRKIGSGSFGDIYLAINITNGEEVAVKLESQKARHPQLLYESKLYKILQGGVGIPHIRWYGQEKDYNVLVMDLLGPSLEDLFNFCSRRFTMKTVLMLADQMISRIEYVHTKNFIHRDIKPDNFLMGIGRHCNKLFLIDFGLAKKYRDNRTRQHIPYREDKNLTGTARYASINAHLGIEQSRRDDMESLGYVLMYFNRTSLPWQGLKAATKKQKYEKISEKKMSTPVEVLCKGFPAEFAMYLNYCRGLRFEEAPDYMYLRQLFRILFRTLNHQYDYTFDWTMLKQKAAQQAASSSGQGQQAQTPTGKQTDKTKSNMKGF

[17] = molecular target: panel of 468 diverse kinases (Homo sapiens, UniProt O14733); conditions: MKK7; 1000 nM; read-out: Percent Control
Chain of panel of 468 diverse kinases (Homo sapiens, UniProt O14733) (O14733 2-419 limits assumed): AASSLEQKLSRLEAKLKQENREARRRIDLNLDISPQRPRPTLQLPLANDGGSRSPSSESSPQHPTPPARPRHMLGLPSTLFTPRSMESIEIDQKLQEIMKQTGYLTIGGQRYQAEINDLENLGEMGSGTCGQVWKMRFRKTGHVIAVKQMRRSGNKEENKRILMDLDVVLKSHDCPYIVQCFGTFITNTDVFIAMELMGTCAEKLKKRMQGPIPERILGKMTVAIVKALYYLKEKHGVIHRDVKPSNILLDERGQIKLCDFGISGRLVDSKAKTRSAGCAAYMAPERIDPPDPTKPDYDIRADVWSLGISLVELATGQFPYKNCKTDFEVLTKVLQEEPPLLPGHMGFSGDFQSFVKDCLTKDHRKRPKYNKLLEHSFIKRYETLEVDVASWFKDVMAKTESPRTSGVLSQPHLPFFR

[18] = molecular target: panel of 468 diverse kinases (Homo sapiens, UniProt Q86UE8); conditions: TLK2; 1000 nM; read-out: Percent Control
[19] = molecular target: panel of 468 diverse kinases (Homo sapiens, UniProt Q99640); conditions: PKMYT1; 1000 nM; read-out: Percent Control
[20] = molecular target: panel of 468 diverse kinases (Homo sapiens, UniProt Q00536); conditions: PCTK1; 1000 nM; read-out: Percent Control
[21] = molecular target: panel of 468 diverse kinases (Homo sapiens, UniProt Q12852); conditions: DLK; 1000 nM; read-out: Percent Control
[22] = molecular target: panel of 468 diverse kinases (Homo sapiens, UniProt P54762); conditions: EPHB1; 1000 nM; read-out: Percent Control
Chain of panel of 468 diverse kinases (Homo sapiens, UniProt P54762) (P54762 18-984 limits assumed): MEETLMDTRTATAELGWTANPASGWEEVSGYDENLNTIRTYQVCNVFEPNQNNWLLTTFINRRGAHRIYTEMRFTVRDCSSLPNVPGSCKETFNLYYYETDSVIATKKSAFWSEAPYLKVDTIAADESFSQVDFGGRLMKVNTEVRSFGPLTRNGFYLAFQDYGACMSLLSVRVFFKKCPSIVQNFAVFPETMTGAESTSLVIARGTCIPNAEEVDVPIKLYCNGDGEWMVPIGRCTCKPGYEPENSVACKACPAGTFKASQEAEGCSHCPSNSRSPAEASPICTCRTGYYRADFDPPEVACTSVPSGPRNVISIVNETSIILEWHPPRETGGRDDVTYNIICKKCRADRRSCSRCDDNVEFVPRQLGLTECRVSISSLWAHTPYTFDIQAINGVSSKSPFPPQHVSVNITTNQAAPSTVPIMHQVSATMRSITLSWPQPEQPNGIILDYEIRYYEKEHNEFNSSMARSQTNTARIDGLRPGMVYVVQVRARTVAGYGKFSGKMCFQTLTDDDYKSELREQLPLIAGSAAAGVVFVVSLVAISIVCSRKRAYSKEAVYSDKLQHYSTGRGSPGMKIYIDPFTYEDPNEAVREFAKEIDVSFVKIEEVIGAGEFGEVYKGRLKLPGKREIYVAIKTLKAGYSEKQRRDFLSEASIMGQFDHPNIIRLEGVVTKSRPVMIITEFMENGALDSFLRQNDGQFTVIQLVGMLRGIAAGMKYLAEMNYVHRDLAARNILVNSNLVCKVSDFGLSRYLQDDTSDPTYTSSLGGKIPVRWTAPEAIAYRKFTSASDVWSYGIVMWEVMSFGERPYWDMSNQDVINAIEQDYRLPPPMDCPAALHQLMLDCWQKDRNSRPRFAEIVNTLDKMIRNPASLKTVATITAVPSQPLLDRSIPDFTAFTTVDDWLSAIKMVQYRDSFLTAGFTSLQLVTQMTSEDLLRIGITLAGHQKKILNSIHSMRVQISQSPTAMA

[23] = molecular target: panel of 468 diverse kinases (Homo sapiens, UniProt Q8IVW4); conditions: CDKL3; 1000 nM; read-out: Percent Control
[24] = molecular target: panel of 468 diverse kinases (Homo sapiens, UniProt Q9HC98); conditions: NEK6; 1000 nM; read-out: Percent Control
[25] = molecular target: panel of 468 diverse kinases (Homo sapiens, UniProt Q9BRS2); conditions: RIOK1; 1000 nM; read-out: Percent Control
[26] = molecular target: panel of 468 diverse kinases (Homo sapiens, UniProt Q9BVS4); conditions: RIOK2; 1000 nM; read-out: Percent Control
[27] = molecular target: panel of 468 diverse kinases (Homo sapiens, UniProt Q9HBH9); conditions: MKNK2; 1000 nM; read-out: Percent Control
[28] = molecular target: panel of 468 diverse kinases (Homo sapiens, UniProt Q8WXR4); conditions: MYO3B; 1000 nM; read-out: Percent Control
[29] = molecular target: panel of 468 diverse kinases (Homo sapiens, UniProt P21860); conditions: ERBB3; 1000 nM; read-out: Percent Control
Chain of panel of 468 diverse kinases (Homo sapiens, UniProt P21860) (P21860 20-1342 limits assumed): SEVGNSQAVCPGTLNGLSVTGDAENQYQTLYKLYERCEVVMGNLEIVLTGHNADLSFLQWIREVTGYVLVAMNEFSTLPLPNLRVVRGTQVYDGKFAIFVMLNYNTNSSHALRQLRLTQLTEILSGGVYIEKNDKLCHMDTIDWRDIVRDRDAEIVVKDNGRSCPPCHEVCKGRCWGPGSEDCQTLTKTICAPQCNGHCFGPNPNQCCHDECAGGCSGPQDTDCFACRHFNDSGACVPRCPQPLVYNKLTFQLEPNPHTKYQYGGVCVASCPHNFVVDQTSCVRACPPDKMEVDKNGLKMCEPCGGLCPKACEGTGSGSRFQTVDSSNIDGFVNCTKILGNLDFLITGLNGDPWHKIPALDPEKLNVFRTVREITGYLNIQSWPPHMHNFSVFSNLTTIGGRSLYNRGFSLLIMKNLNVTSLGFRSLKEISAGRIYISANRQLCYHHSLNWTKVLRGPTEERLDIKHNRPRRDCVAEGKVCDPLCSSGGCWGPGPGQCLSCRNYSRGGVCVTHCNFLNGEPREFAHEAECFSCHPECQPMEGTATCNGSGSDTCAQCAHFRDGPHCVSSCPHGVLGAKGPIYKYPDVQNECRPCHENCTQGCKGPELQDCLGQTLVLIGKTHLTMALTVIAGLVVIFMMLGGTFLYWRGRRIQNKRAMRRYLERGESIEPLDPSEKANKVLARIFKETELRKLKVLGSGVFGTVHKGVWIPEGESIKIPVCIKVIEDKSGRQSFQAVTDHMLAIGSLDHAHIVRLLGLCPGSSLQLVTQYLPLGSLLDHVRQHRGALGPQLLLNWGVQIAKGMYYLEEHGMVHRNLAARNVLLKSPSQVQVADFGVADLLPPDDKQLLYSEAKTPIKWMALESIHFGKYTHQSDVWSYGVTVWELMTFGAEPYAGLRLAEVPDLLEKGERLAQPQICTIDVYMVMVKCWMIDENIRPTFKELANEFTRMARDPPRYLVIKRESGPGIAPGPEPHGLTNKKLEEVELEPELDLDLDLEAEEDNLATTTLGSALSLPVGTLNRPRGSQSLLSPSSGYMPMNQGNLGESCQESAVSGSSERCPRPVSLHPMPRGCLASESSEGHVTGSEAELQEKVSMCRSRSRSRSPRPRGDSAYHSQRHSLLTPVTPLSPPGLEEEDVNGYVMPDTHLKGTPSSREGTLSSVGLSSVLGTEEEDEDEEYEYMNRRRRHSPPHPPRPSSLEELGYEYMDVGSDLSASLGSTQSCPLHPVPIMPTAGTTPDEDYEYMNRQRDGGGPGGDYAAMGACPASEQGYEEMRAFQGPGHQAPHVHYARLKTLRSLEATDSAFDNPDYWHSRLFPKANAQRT

[30] = molecular target: panel of 468 diverse kinases (Homo sapiens, UniProt P42680); conditions: TEC; 1000 nM; read-out: Percent Control
[31] = molecular target: panel of 468 diverse kinases (Homo sapiens, UniProt P00519, E255K); conditions: ABL1(E255K)-phosphorylated; 1000 nM; read-out: Percent Control

With COc1cc2nc(NC3CC3)nc(NC3CCN(C(C)C)CC3)c2cc1OC [Formula IV] the remaining activity at 1 µM [1] was 53%, the remaining activity at 1 µM [2] was 70% and the remaining activity at 1 µM [3] was 66%. The remaining activity at 1 µM [4] was 71%, the remaining activity at 1 µM ([5]; ABL1(T315I)-nonphosphorylated) was 100% and the remaining activity at 1 µM ([5]; ABL1(T315I)-phosphorylated) was 49%. The remaining activity at 1 µM [6] was 84%, the remaining activity at 1 µM [7] was 89% and the remaining activity at 1 µM [8] was 100%. For the same molecule, the remaining activity at 1 µM [9] was 58%, the remaining activity at 1 µM [10] was 100% and the remaining activity at 1 µM ([11]; ABL1(F317I)-nonphosphorylated) was 85%. The remaining activity at 1 µM ([11]; ABL1(F317I)-pho sphorylated) was 90%, the remaining activity at 1 µM [12] was 100% and the remaining activity at 1 µM [13] was 77%. It also gave a remaining activity at 1 µM [14] of 96%, a remaining activity at 1 µM [15] of 50% and a remaining activity at 1 µM [16] of 74%. For the same molecule, the remaining activity at 1 µM [17] was 72%, the remaining activity at 1 µM [18] was 100% and the remaining activity at 1 µM [19] was 93%. It also gave a remaining activity at 1 µM [20] of 43%, a remaining activity at 1 µM [21] of 62% and a remaining activity at 1 µM [22] of 89%. It also gave a remaining activity at 1 µM [23] of 66%, a remaining activity at 1 µM [24] of 83% and a remaining activity at 1 µM [25] of 100%. It also gave a remaining activity at 1 µM [26] of 80%, a remaining activity at 1 µM [27] of 82% and a remaining activity at 1 µM [28] of 91%. For the same molecule, the remaining activity at 1 µM [29] was 100%, the remaining activity at 1 µM [30] was 100% and the remaining activity at 1 µM [31] was 89%.
